{"source": "patent US12180155B2", "about": "“Crystalline forms of a cannabinoid receptor type 1 (CB1) modulator and methods of use and preparation thereof” (Anebulo Pharmaceuticals, Inc., priority 2021, dated 2024)", "type_in_all_cases": "physicochemical", "key": {"[1]": {"assay": "Dynamic vapor sorption (DVS)", "settings": "for weight gain from dryness to 90% RH: second adsorption cycle", "excerpt": "(§1) DVS: Polymorphs according to the present disclosure may also give rise to vapors sorption behavior different from that of the amorphous material or another polymorphic form. The vapor sorption behavior may be measured in the laboratory by dynamic vapor sorption (DVS) which may be used to distinguish some polymorphic forms from others. In one aspect, the polymorphs as described herein may be characterized by dynamic vapor sorption.\nThe DVS trace of Crystalline Form I of (R)—N-(tert-butyl)-3-((4-chlorophenyl)(2-(trifluoromethyl)phenyl)methoxy)azetidine-1-carboxamide (compound 1) is reported in FIG. 4.\nThe DVS trace of Crystalline Form I of (R)—N-(tert-butyl)-3-((4-chlorophenyl)(2-(trifluoromethyl)phenyl)methoxy)azetidine-1-carboxamide (compound 1) is reported in FIG. 8."}, "[2]": {"assay": "Stability at solid state (XRPD re-analysis after storage)"}, "[3]": {"assay": "Competitive slurries of Crystalline Form I and Crystalline Form II", "settings": "for conversion of equimolar Form I / Form II slurry to this form: XRPD of solids", "procedure": "The relationship between Crystalline Form I and Crystalline Form II of Compound 1 was investigated via competitive slurries and solubility determination.\nEquimolar amounts of the Crystalline Form I and Crystalline Form II were suspended in saturated solution of compound 1 and aged in different conditions. Slurry samples were taken at intervals, solids were filtered, dried and analyzed by XRPD. Two temperatures, 20° C. and 40° C., and two different solvent systems, heptane and a mixture of ethanol and water, were investigated."}, "[4]": {"assay": "Temperature dependent solubility in heptane (Crystal16, clear points)", "settings": "for temperature at which the two solubility lines intersect / relative solubility: heptane; for temperature at which the two solubility lines intersect: Form I vs Form II", "procedure": "Temperature dependent solubility experiment was performed on Crystalline Form I and Crystalline Form II of Compound 1, and data was generated by Crystal16 equipment using heptane as solvent. Slurries with accurate amounts of solid in heptane were prepared, equilibrated at 20° C. for 5 minutes then heated to 70° C. at a rate of 5° C./min, and the turbidity of the suspensions were measured. Clear points of the solutions were determined and solubility vs. temperature curves (Arrhenius plots: ln[conc.] vs. 1/T [° K]) were obtained, as shown in FIG. 9."}, "[5]": {"assay": "Thermogravimetric analysis (TGA)", "settings": "up to 150° C.", "excerpt": "as §1, with “TGA:” for “DVS:”, “thermal” for “vapors sorption”, “Thermal” for “The vapor sorption”, “thermogravimetric analysis (TGA)” for “dynamic vapor sorption (DVS)”, “thermogravimetric analysis.” for “dynamic vapor sorption.”\nThe TGA trace of Crystalline Form I of (R)—N-(tert-butyl)-3-((4-chlorophenyl)(2-(trifluoromethyl)phenyl)methoxy)azetidine-1-carboxamide (compound 1) is reported in FIG. 3.\nThe TGA trace of Crystalline Form II of (R)—N-(tert-butyl)-3-((4-chlorophenyl)(2-(trifluoromethyl)phenyl)methoxy)azetidine-1-carboxamide (compound 1) is reported in FIG. 7."}}}
{"smiles": "CC(C)(C)NC(=O)N1CC(O[C@H](c2ccc(Cl)cc2)c2ccccc2C(F)(F)F)C1", "note": "[Crystalline Form II, (R)—N-(tert-butyl)-3-((4-chlorophenyl)(2-(trifluoromethyl)phenyl)methoxy)azetidine-1-carboxamide]", "values": [{"measurement": "hygroscopic behavior", "setting": "[1]; dryness to 90% RH", "value": "non-hygroscopic behavior"}, {"measurement": "weight gain from dryness to 90% RH", "setting": "[1]", "value": "< 0.1", "unit": "%"}, {"measurement": "XRPD pattern after storage with respect to initial XRPD pattern", "setting": "[2]; 8 weeks of storage at laboratory conditions", "value": "did not show significant differences"}, {"measurement": "conversion of equimolar Form I / Form II slurry to this form", "setting": "[3]; 20° C., heptane and ethanol/water", "value": "complete conversion"}, {"measurement": "relative polymorph stability", "setting": "[3]; room temperature (20-21° C.)", "value": "most stable polymorph form"}, {"measurement": "temperature at which the two solubility lines intersect", "setting": "[4]", "value": "about 39 °C"}, {"measurement": "relative solubility", "setting": "[4]; temperature less than 39° C.", "value": "less than that of Crystalline Form I"}, {"measurement": "relative stability", "setting": "[4]; temperatures less than 39° C.", "value": "more stable"}, {"measurement": "weight loss", "setting": "[5]", "value": "< 0.1", "unit": "%"}]}
{"smiles": "CC(C)(C)NC(=O)N1CC(O[C@H](c2ccc(Cl)cc2)c2ccccc2C(F)(F)F)C1", "note": "[Crystalline Form I, (R)—N-(tert-butyl)-3-((4-chlorophenyl)(2-(trifluoromethyl)phenyl)methoxy)azetidine-1-carboxamide]", "values": [{"measurement": "weight gain from dryness to 90% RH", "setting": "[1]", "value": 0.4, "unit": "%"}, {"measurement": "XRPD pattern after storage with respect to initial XRPD pattern", "setting": "[2]; 5 weeks of storage at laboratory conditions", "value": "did not show significant differences"}, {"measurement": "conversion of equimolar Form I / Form II slurry to this form", "setting": "[3]; 40° C.", "value": "slow but complete conversion"}, {"measurement": "temperature at which the two solubility lines intersect", "setting": "[4]", "value": "about 39 °C"}, {"measurement": "relative solubility", "setting": "[4]; temperature greater than 40° C.", "value": "less than that of Crystalline Form II"}, {"measurement": "relative stability", "setting": "[4]; temperatures greater than 40° C.", "value": "more stable"}, {"measurement": "weight loss", "setting": "[5]", "value": "< 0.1", "unit": "%"}]}
